Reference: patent publication US9125904B1, “Biphenyl imidazoles and related compounds useful for treating HCV infections” (ACHILLION PHARMACEUTICALS, INC., priority 2010, dated 2015)
Read-outs that look alike come from different tables or passages of the source.

System: HCV replicon
Assay: HCV replicon replication assay (NPT ELISA)
Format: cell-based
Conditions: Hepatitis C virus
Method: Compounds claimed herein are tested for the ability to inhibit viral replication of the Hepatitis C replicon in cultured cells in which the HCV replicon construct has been incorporated. The HCV replicon system was described by Bartenschlager, et. al (Science, 285, pp. 110-113 (1999)). The replicon system is predictive of in vivo anti-HCV activity; compounds that are active in humans uniformly evidence activity in the replicon assay.
In this assay HCV replicon containing cells are treated with different concentrations of the test compound to ascertain the ability of the test compound to suppress replication of the HCV replicon. As a positive control, HCV replicon-containing cells are treated with different concentrations of interferon alpha, a known inhibitor of HCV replication. The replicon assay system includes Neomycin Phosphotransferase (NPT) as a component of the replicon itself in order to detect the transcription of replicon gene products in the host cell. Cells in which the HCV replicon is actively replicating have high levels of NPT; the level of NPT is proportional to HCV replication. […] The NPT level of each sample is measured using a captured ELISA.
A protocol for testing compounds for the ability to inhibit viral replication of the Hepatitis C replicon cultured cells in which the replicon construct has been incorporated, follows.
The HCV replicon contains, 5′-3′, the HCV-IRES, the neomycin phosphotransferase (neo) gene, the IRES of encephalomyocarditis virus, which directs translation of HCV sequences NS3 to NS5B, and the 3′-NTR. The sequence of the HCV replicon has been deposited in GenBank (Accession no. AJ242652).
The replicon is transfected into Huh-7 cells using standard methods such as electroporation.
The equipment and materials include, but are not limited to, Huh-7 HCV replicon-containing cells, maintenance media (DMEM (Dulbecco's modified Eagle media) supplemented with 10% FBS, L-glutamine, non-essential amino acids, penicillin (100 units/ml), streptomycin (100 micrograms/ml), and 500 micrograms/ml of Geneticin (G418), screening media (DMEM supplemented with 10% FBS, L-glutamine, non-essential amino acids, penicillin (100 units/ml) and streptomycin (100 micrograms/ml)), 96 well tissue culture plates (flat bottom), 96 well plates (U bottom for drug dilution), Interferon alpha for positive control, fixation reagent (such as methanol: acetone), primary antibody (rabbit anti-NPTII), secondary antibody: Eu-N1 1, and enhancement solution.
HCV replicon-containing cells support high levels of viral RNA replicon replication when their density is suitable. Over-confluency causes decreased viral RNA replication. Therefore, cells must be kept growing in log phase in the presence of 500 micrograms/ml of G418. Generally, cells should be passed twice a week at 1: 4-6 dilution. Cell maintenance is conducted as follows:
HCV replicon-containing cells are examined under a microscope to ensure that cells growing well. Cells are rinsed once with PBS and 2 ml trypsin is added. The cell/trypsin mixture is incubated at 37° C. in a CO2 incubator for 3-5 minutes. After incubation 10 ml of complete media is added to stop the trypsinization reaction. Cells are blown gently, put into a 15 ml tube, and spun at 1200 rpm for 4 minutes. The trypsin/medium solution is removed. Medium (5 ml) is added and the cells are mixed carefully. The cells are counted.
The cells are then seeded onto 96-well plates at a density of 6000-7500 cells/100 microliters/well (6−7.5×10^5 cells/10 ml/plate). The plates are then incubated at 37° C. in a 5% CO2 incubator.
Cells are examined under a microscope approximated 24 hours after seeding and prior to adding drugs. If counting and dilution were performed correctly, cells are 60-70% confluent and nearly all cells should attach and spread evenly in the well.
HCV replicon-containing cells are rinsed with once PBS once; 2 mls of trypsin are then added. Cells are incubated at 37° C. in a 5% CO2 incubator for 3-5 minutes. […]

[1] = 72 h, Huh-7 HCV replicon-containing cells, three days, class symbols, read-out: EC50

## COC(=O)N[C@H](C(=O)N1CCC[C@H]1c1ncc(-c2ccc(-c3ccc4oc(-c5cnc([C@@H]6C7CCC(C7)N6C(=O)[C@@H](NC(=O)OC)C(C)C)[nH]5)cc4c3)cc2)[nH]1)C(C)C (some centres unmarked) [Compound 70]
[1]
  EC50: < 5 nM

## CNC(=O)C[C@H](C(=O)N1CCC[C@@H]1c1ncc(-c2ccc(-c3ccc(-c4cnc([C@@H]5CCCN5C(=O)[C@@H](CC(=O)NC)C(C)C)[nH]4)cc3)cc2)[nH]1)C(C)C [Compound 40, (S)-3-((R)-2-(5-(4′-(2-((S)-1-((S)-2-isopropyl-4-(methylamino)-4-oxobutanoyl)pyrrolidin-2-yl)-1H-imidazol-5-yl)biphenyl-4-yl)-1H-imidazol-2-yl)pyrrolidine-1-carbonyl)-N,4-dimethylpentanamide]
[1]
  EC50: < 5 nM
Huh-7
  EC50: ≤ 10000 nM

## COC(=O)N[C@H](C(=O)N1CCC[C@H]1C1=NC(c2ccc(-c3ccc4[nH]c([C@@H]5C6CCC(C6)N5C(=O)[C@@H](NC(=O)OC)C(C)C)nc4c3)cc2)CN1)C(C)C (some centres unmarked) [Compound 65]
[1]
  EC50: < 5 nM

## COC(=O)NC(C(=O)N1c2ccccc2C[C@H]1c1nc(-c2ccc(-c3ccc(-c4cnc([C@@H]5Cc6ccccc6N5C(=O)C(NC(=O)OC)C(C)C)[nH]4)cc3)cc2)c[nH]1)C(C)C (stereo partly drawn) [Compound 25, dimethyl (2R,2′R)-1,1′-((2S,2′S)-2,2′-(5,5′-(biphenyl-4,4′-diyl)bis(1H-imidazole-5,2-diyl))bis(indoline-2,1-diyl))bis(3-methyl-1-oxobutane-2,1-diyl)dicarbamate]
[1]
  EC50: < 5 nM
Huh-7
  EC50: ≤ 10000 nM

## COC(=O)N[C@H](C(=O)N1CCCCC1c1nc(-c2ccc(-c3ccc(-c4c[nH]c(C5C6CCC(C6)N5C(=O)[C@@H](NC(=O)OC)C(C)C)n4)cc3)cc2)c[nH]1)C(C)C (some centres unmarked) [Compound 49]
[1]
  EC50: < 5 nM

## COC(=O)N[C@H](C(=O)N1CCC[C@H]1c1cnc(-c2ccc(-c3ccc(NC(=O)[C@H]4CCCCN4C(=O)[C@H](NC(=O)OC(C)(C)C)c4ccccc4)cc3)cc2)[nH]1)C(C)C [Compound 39]
72 h, Huh-7 HCV replicon-containing cells, three days, numeric cells, read-out: EC50
  EC50: > 1 nM
Huh-7
  EC50: ≤ 10000 nM

## COC(=O)N[C@H](C(=O)N1CC=CC1c1nc(-c2ccc(-c3ccc(-c4c[nH]c([C@@H]5C=CCN5C(=O)[C@@H](NC(=O)OC)C(C)C)n4)cc3)cc2)c[nH]1)C(C)C (stereo partly drawn) [Compound 21, dimethyl (2S,2′S)-1,1′-((2R,2′R)-2,2′-(4,4′-(biphenyl-4,4′-diyl)bis(1H-imidazole-4,2-diyl))bis(1H-pyrrole-2,1(2H,5H)-diyl))bis(3-methyl-1-oxobutane-2,1-diyl)dicarbamate]
[1]
  EC50: < 5 nM

## COC(=O)N[C@H](C(=O)N1CCC[C@H]1c1nc(-c2ccc(-c3ccc(-c4c[nH]c([C@@H]5C6CCC(CC6)N5C(=O)[C@@H](NC(=O)OC)C(C)C)n4)cc3)cc2)c[nH]1)C(C)C [Compound 47]
[1]
  EC50: < 5 nM

## COC(=O)NC(C(=O)N1CCC[C@H]1Cc1nc(-c2ccc(-c3ccc(-c4cnc([C@@H]5CCCN5C(=O)[C@@H](NC(=O)OC)C(C)C)[nH]4)cc3)cc2)c[nH]1)C(C)C (some centres unmarked) [Compound 42]
[1]
  EC50: < 5 nM

## COC(=O)N[C@H](C(=O)N1C2CCC(C2)C1c1ncc(-c2ccc(-c3ccc(-c4cnc(C5C6CCC(C6)N5C(=O)[C@@H](NC(=O)OC)C(C)C)[nH]4)cc3)cc2)[nH]1)C(C)C (stereo partly drawn) [Compound 56, dimethyl (2S,2′S)-1,1′-(3,3′-(5,5′-(biphenyl-4,4′-diyl)bis(1H-imidazole-5,2-diyl))bis(2-azabicyclo[2.2.1]heptane-3,2-diyl))bis(3-methyl-1-oxobutane-2,1-diyl)dicarbamate]
[1]
  EC50: < 5 nM

## COC(=O)N[C@H](C(=O)N1CCCC[C@H]1c1nc(-c2ccc(-c3ccc(-c4c[nH]c([C@@H]5CCCN5C(=O)[C@@H](NC(=O)OC)C(C)C)n4)cc3)cc2)c[nH]1)C(C)C [Compound 48]
[1]
  EC50: < 5 nM
